This note sets out measurements from US12297187B2, “Compound having cyclic structure” (Daiichi Sankyo Company, Limited, priority 2017, dated 2025).

The assay deals with IL-10. The experiment in a line: Measurement of IL-10 increase rate (LPS-induced inflammation in mice, serum IL-10 by ELISA). Type of assay: in vivo. To be noted: Mus musculus, 2 h, oral 100 mg/kg in 0.5% methyl cellulose, LPS 0.4 mg/kg i.p. one hour later, serum taken one hour after LPS, % control ratio vs 0.5% methyl cellulose group, read-out: IL10 Increase Rate (%). On the procedure:
A test substance was suspended in a 0.5% (w/v) methyl cellulose and orally administered to mice at a dose of 100 mg/kg. One hour later, a lipopolysaccharide (LPS, Sigma-Aldrich, L2630 (trade name)) (0.4 mg/kg) was intraperitoneally administered to induce inflammation. One hour after administration of LPS, blood was taken from the vena cava under anesthesia with isoflurane, placed in a tube containing a serum separating agent, allowed to stand still at room temperature for 20-30 minutes and centrifuged at 4° C. at 12,000 rpm for 5 minutes to obtain the serum. Thereafter, the amount of the IL-10 in the serum was measured by using Mouse IL-10 Quantikine ELISA Kit (R&D systems, M1000B (trade name)) or Mouse IL-10 Immunoassay kit (PerkinElmer, AL502 (trade name)) in accordance with the protocol of the kit. The serum was diluted 10 times with the dilution solution contained in the kit and put in use. IL-10 increase rate (% control ratio) of the compound was calculated in accordance with the following expression: IL-10 increase rate (% control ratio) (IL10 amount in compound administration group)×100/(IL-10 amount in 0.5% (w/v) methyl cellulose administration group)
As to `CC(C)c1cccc(O[C@H](C)c2nnc([C@H]3CC[C@H](n4cc(C5(F)CCN(C)CC5)nn4)CC3)n2C)c1` [Example 4, 4-Fluoro-1-methyl-4-{1-[trans-4-(4-methyl-5-{(1R)-1-[3-(propan-2-yl)phenoxy]ethyl}-4H-1,2,4-triazol-3-yl)cyclohexyl]-1H-1,2,3-triazol-4-yl}piperidine], the response vs control in vivo at 100 mg/kg amounted to 131%.

On to `CN1CCC(c2nnc(-c3ccc(-c4nnc(COc5cccc(C(F)(F)F)c5)n4C)cc3)o2)CC1` [Example 34, 1-Methyl-4-{5-[4-(4-methyl-5-{[3-(trifluoromethyl)phenoxy]methyl}-4H-1,2,4-triazol-3-yl)phenyl]-1,3,4-oxadiazol-2-yl}piperidine], for which the response vs control in vivo at 100 mg/kg came to 202%.

On to `Cn1c(COc2cccc(C(F)(F)F)c2)nnc1[C@H]1CC[C@H](c2cnn([C@H]3CC[C@H](N4CCC4)CC3)c2)CC1` [Example 21, 3-(trans-4-{1-[trans-4-(Azetidin-1-yl)cyclohexyl]-1H-pyrazol-4-yl}cyclohexyl)-4-methyl-5-{[3-(trifluoromethyl)phenoxy]methyl}-4H-1,2,4-triazole], for which the response vs control in vivo at 100 mg/kg worked out at 312%.

`CN1CCC(c2cnn(-c3ccc(-c4nnc(COc5cccc(C(F)(F)F)c5)n4C)cc3)c2)CC1` [Example 16, 1-Methyl-4-{1-[4-(4-methyl-5-{[3-(trifluoromethyl)phenoxy]methyl}-4H-1,2,4-triazol-3-yl)phenyl]-1H-pyrazol-4-yl}piperidine]: the response vs control in vivo at 100 mg/kg amounted to 170%.

Regarding `Cn1c(COc2cc(C(F)(F)F)ccn2)nnc1[C@H]1CC[C@H](c2cnn([C@H]3CC[C@H](N4CC5(CCO5)C4)CC3)c2)CC1` [Example 25, 6-[trans-4-(4-{trans-4-[4-Methyl-5-({[4-(trifluoromethyl)pyridin-2-yl]oxy}methyl)-4H-1,2,4-triazol-3-yl]cyclohexyl}-1H-pyrazol-1-yl)cyclohexyl]-1-oxa-6-azaspiro[3.3]heptane], the response vs control in vivo at 100 mg/kg was 216%.

`Cn1c(COc2cc(C(F)(F)F)ccn2)nnc1[C@H]1CC[C@H](c2cnn([C@H]3C[C@H](O)[C@@H](N4CCC4)C3)c2)CC1` (racemic) [Example 28, (1SR,2SR,4RS)-2-(Azetidin-1-yl)-4-(4-{trans-4-[4-methyl-5-({[4-(trifluoromethyl)pyridin-2-yl]oxy}methyl)-4H-1,2,4-triazol-3-yl]cyclohexyl}-1H-pyrazol-1-yl)cyclopentanol]: the response vs control in vivo at 100 mg/kg worked out at 113%.

For the compound `Cn1c(COc2cc(C(F)(F)F)ccn2)nnc1[C@H]1CC[C@H](c2cnn([C@H]3CC[C@H](N4CCOCC4)CC3)c2)CC1` [Example 23, 4-[trans-4-(4-{trans-4-[4-Methyl-5-({[4-(trifluoromethyl)pyridin-2-yl]oxy}methyl)-4H-1,2,4-triazol-3-yl]cyclohexyl}-1H-pyrazol-1-yl)cyclohexyl]morpholine], the response vs control in vivo at 100 mg/kg stood at 232%.

Consider `Cn1c(COc2cccc(C(F)(F)F)c2)nnc1[C@H]1CC[C@H](c2cn([C@@H]3CC[C@@H](CN4CCC4)OC3)nn2)CC1` [Example 19, 1,5-Anhydro-6-azetidin-1-yl-2,3,4,6-tetradeoxy-2-{4-[trans-4-(4-methyl-5-{[3-(trifluoromethyl)phenoxy]methyl}-4H-1,2,4-triazol-3-yl)cyclohexyl]-1H-1,2,3-triazol-1-yl}-D-erythro-hexitol], for which the response vs control in vivo at 100 mg/kg was determined as 227%.

For the compound `Cn1c(COc2cc(C(F)(F)F)ccn2)nnc1[C@H]1CC[C@H](c2cnn([C@H]3CC[C@H](N4CC5(COC5)C4)CC3)c2)CC1` [Example 24, 6-[trans-4-(4-{trans-4-[4-Methyl-5-({[4-(trifluoromethyl)pyridin-2-yl]oxy}methyl)-4H-1,2,4-triazol-3-yl]cyclohexyl}-1H-pyrazol-1-yl)cyclohexyl]-2-oxa-6-azaspiro[3.3]heptane], the response vs control in vivo at 100 mg/kg turned out to be 257%.

For `Cn1c(COC2CCCC(C(F)(F)F)C2)nnc1[C@H]1CC[C@H](c2cnn([C@H]3CC[C@H](N4CC5(CCOC5)C4)CC3)c2)CC1` (stereo partly drawn) [Example 32, 2-[trans-4-(4-{trans-4-[4-Methyl-5-({[3-(trifluoromethyl)cyclohexyl]oxy}methyl)-4H-1,2,4-triazol-3-yl]cyclohexyl}-1H-pyrazol-1-yl)cyclohexyl]-6-oxa-2-azaspiro[3.4]octane], the response vs control in vivo at 100 mg/kg came to 202%.

On to `CC(C)c1cccc(O[C@@H](C)c2nnc(C34CCC(n5cc(-c6ccc([C@@H](C)N7CCC7)cc6)nn5)(CC3)CC4)n2C)c1` [Example 7, 4-{4-[(1R)-1-(Azetidin-1-yl)ethyl]phenyl}-1-[4-(4-methyl-5-{(1S)-1-[3-(propan-2-yl)phenoxy]ethyl}-4H-1,2,4-triazol-3-yl)bicyclo[2.2.2]oct-1-yl]-1H-1,2,3-triazole], for which the response vs control in vivo at 100 mg/kg worked out at 113%.

Regarding `Cn1c(CCn2cccc(C(F)(F)F)c2=O)nnc1[C@H]1CC[C@H](c2cnn([C@H]3CC[C@H](N4CC5(CCOC5)C4)CC3)c2)CC1` [Example 33, 1-{2-[4-Methyl-5-(trans-4-{1-[trans-4-(6-oxa-2-azaspiro[3.4]oct-2-yl)cyclohexyl]-1H-pyrazol-4-yl}cyclohexyl)-4H-1,2,4-triazol-3-yl]ethyl}-3-(trifluoromethyl)pyridin-2(1H)-one], the response vs control in vivo at 100 mg/kg came out at 144%.

Turning to `CC(C)c1cccc(O[C@H](C)c2nnc([C@H]3CC[C@H](C4=NOC5(CCN(C)CC5)C4)CC3)n2C)c1` [Example 36, 8-Methyl-3-[trans-4-(4-methyl-5-{(1R)-1-[3-(propan-2-yl)phenoxy]ethyl}-4H-1,2,4-triazol-3-yl)cyclohexyl]-1-oxa-2,8-diazaspiro[4.5]dec-2-ene], the response vs control in vivo at 100 mg/kg amounted to 230%.

Turning to `Cn1c(COc2cc(C(F)(F)F)ccn2)nnc1[C@H]1CC[C@H](c2cnn([C@H]3CC[C@H](N4CC5(CCOC5)C4)CC3)c2)CC1` [Example 27, 2-[trans-4-(4-{trans-4-[4-Methyl-5-({[4-(trifluoromethyl)pyridin-2-yl]oxy}methyl)-4H-1,2,4-triazol-3-yl]cyclohexyl}-1H-pyrazol-1-yl)cyclohexyl]-6-oxa-2-azaspiro[3.4]octane], the response vs control in vivo at 100 mg/kg worked out at 255%.
